“Also recorded” adds a separate entry of the source. Positions of bridges follow the written chain, without caps; N, C: chain ends. Non-standard residues stand in square brackets, D forms with d. Residues, ends and D or L forms follow the SMILES beside them. S5 = C=CCCC[C@](C)(N)C(=O)O; βAla = NCCC(=O)O

Holding throughout (assay type): cell-based
One test has as its system GCB DLBCL cell lines. The experiment in a line: MTS cell viability assay, GCB DLBCL. Particulars: 5 μM or 20 μM, four days (FIGS. 7A-7D). Here is the method: (§1) ABC and GCB DLBCL cell lines were treated with RNF31 stapled peptides of Table 2 at concentrations of 5 μM or 20 μM for four days. Cell viability was determined using the following MTS assay. Cells were plated in triplicate at a density of 15,000 cells per well in 96-well plates. Cell viability after indicated treatments was assayed by adding 3-(4,5-dimethylthiazol-2-yl)-5-(3-carboxymethoxyphenyl)-2-(4-sulphophenyl)-2H tetrazolium and an electron coupling reagent (phenazine methosulphate from Promega, Madison, Wis.), incubated for 3 hours and measured by the amount of 490 nm absorbance using a 96-well plate reader. The background was subtracted using a media only control. The results of these MTS assays done in triplicate are shown in FIGS. 7A-7D (error bars indicate the SEM), and cell viability is expressed as the fraction of cells remaining after four days treatment, relative to the initial number of cells at the start of treatment (time 0). The results of MTS cell viability assay indicate that amino-terminal cross-linked peptides RNF31-N (SEQ ID NO: 11) and RNF31-NC (SEQ ID NO: 12) were toxic to ABC DLBCL cell lines but had little effect on GCB DLBCL cell lines tested.

Another test deals with NF-κB. The experiment in a line: NF-κB luciferase reporter assay. Particulars: for Relative NF-κB-luciferase reporter activity: HBL1 ABC DLBCL cells, 5 μM or 20 μM, 2 days, relative to DMSO (FIG. 4). Here is the method: A third experiment was done using a different reporter system for NF-κB activity. HBL1 and TMD8 ABC DLBCL lines cell lines were created with an NF-κB transcriptional reporter by transduction with lentiviral particles containing an inducible NF-κB-responsive luciferase reporter construct (SA Biosciences, Valencia, Calif.) and selected with puromycin. Luciferase activity was measured using the DUAL-LUCIFERASE™ Reporter Assay System (Promega) on a Microtiter Plate Luminometer (Dyn-Ex Technologies, Chantilly, Va.). The transduced HBL and TMD8 cell lines were then transfected with constructs that inducibly express control (SC4) or RNF31 shRNAs described above. Expression of shRNAs was induced using doxycyline, and the luciferase reporter activity in shRNF31 expression cells was measured and normalized relative to control (SC4). Cells were also treated with the specific IKKβ inhibitor (MLN120B) as a positive control. Experiments were done in triplicate, and results are shown in FIG. 2C (error bars indicate SEM).
The ability of these peptides to inhibit NF-κB activity in ABC DLBCL was determined using the NF-κB luciferase reporter assay described above. Negative control cells were treated with dimethyl sulfoxide (DMSO), and positive control cells were treated with Bruton's tyrosine kinase (Btk) inhibitor ibrutinib. […] Cells were treated with peptides at concentrations of 5 μM or 20 μM for 2 days. Relative NF-κB-luciferase reporter activity was normalized and measured relative to control (DMSO-treated) cells. The results of triplicate experiments are shown in FIG. 4 (error bars indicate the SEM).
(In general: Reporter assays use an easily measured gene product as a stand-in for the process of interest.)

The test system of the next test is ABC DLBCL cell lines. The experiment in a line: MTS cell viability assay, ABC DLBCL. The protocol: as §1
A general note: Tetrazolium assays rely on reduction of a dye to a coloured formazan, in cell work by metabolically active cells.

In the next test the target is T1, RBCK1/RNF31 interaction (Homo sapiens, UniProt Q9BYM8).
T1 construct: expressed in transfected cells; host or cells: HEK-293
T1 sequence (Q9BYM8 1-510): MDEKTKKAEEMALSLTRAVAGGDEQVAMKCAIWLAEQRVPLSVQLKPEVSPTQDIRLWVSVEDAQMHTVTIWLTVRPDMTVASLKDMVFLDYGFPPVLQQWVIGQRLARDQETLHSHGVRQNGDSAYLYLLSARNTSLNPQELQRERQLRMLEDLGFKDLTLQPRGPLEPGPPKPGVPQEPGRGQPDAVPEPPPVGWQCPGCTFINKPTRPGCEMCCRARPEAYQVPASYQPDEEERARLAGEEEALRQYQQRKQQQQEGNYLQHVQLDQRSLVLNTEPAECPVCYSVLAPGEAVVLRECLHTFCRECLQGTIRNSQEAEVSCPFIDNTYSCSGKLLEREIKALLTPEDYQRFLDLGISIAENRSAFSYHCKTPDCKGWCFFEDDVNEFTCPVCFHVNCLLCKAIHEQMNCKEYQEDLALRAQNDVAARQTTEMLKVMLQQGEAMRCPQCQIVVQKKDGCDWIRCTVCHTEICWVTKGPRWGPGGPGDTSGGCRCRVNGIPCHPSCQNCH
The experiment in a line: RBCK1/RNF31 co-immunoprecipitation (LUBAC complex formation) in co-transfected HEK-293 cells. The conditions noted are these: for RBCK1/RNF31 interaction (anti-HA immunoprecipitation, densitometry): HEK-293 cells, 5 μM or 20 μM, 24 hours, relative to DMSO (FIGS. 5, 6).

The next test concerns IκBα. The experiment in a line: IκBα-luciferase reporter assay. Particulars: ABC DLBCL cells, Example 10 (FIG. 8B). The text has this:
In a second experiment, HBL1 and TMD8 ABC DLBCL lines were engineered to contain an NF-κB-driven luciferase reporter. Vectors expressing an IκBα-luciferase fusion protein were constructed using Photinus luciferase from pGL3 vector (Promega, Madison, Wis.) as the reporter and Renilla luciferase construct from phRL-TK (Promega) was used for normalization. Stable clones were identified that were responsive to […] (see Lam et al, Clin Cancer Res, 11: 28-40 (2005)). After development with the DUAL-GLO luciferase assay system (Promega), the ratio of IκBα-Photinus to Renilla luminescence was normalized to that in untreated or uninduced cultures. The IκBα assay, which relies on the correlation between NF-κB activity and IKKβ kinase activity, was previously described in Lenz et al, Science, 319: 1676-1679 (2008). In brief, IKKβ kinase phosphorylates IκBα, which leads to degradation of IκBα (an inhibitor of NF-κB) and thereby activates NF-κB.
The engineered cells were transfected with control (SC4) or RNF31 shRNAs under the control of a doxycyline promoter as described in Example 2. Expression of shRNA was induced with doxycyline, and relative amounts of NF-κB Luciferase reporter activity was measured and normalized relative to control (SC4) shRNA. As additional controls, the expression of NF-κB Luciferase reporter activity was measured in cells that were not expressing shRNAs and which were either treated with the specific IKKβ inhibitor (“MLM-120B”) or untreated (“No Rx”). Experiments were done in triplicate and the results are shown in FIG. 2B (error bars indicate standard error of the mean (SEM)).

Setting [1] is: ABC DLBCL cell lines, 5 μM or 20 μM, four days (FIGS. 7A-7D).

In the case of “Ac-βAla Ser Arg Xaa Leu Thr Glu Xaa Gln Arg Gln Arg Leu Glu Pro Phe Arg Gln Arg Xaa Trp Asp Ser Xaa-NH2 (Ac-[βAla]SR[S5]LTE[S5]QRQRLEPFRQR[S5]WDS[S5]-NH2; staple 20-24, 4-8; SMILES CC(=O)NCCC(=O)N[C@@H](CO)C(=O)N[C@@H](CCCNC(=N)N)C(=O)N[C@@]1(C)CCCC=CCCC[C@@](C)(C(=O)N[C@@H](CCC(N)=O)C(=O)N[C@@H](CCCNC(=N)N)C(=O)N[C@@H](CCC(N)=O)C(=O)N[C@@H](CCCNC(=N)N)C(=O)N[C@@H](CC(C)C)C(=O)N[C@@H](CCC(=O)O)C(=O)N2CCC[C@H]2C(=O)N[C@@H](Cc2ccccc2)C(=O)N[C@@H](CCCNC(=N)N)C(=O)N[C@@H](CCC(N)=O)C(=O)N[C@@H](CCCNC(=N)N)C(=O)N[C@@]2(C)CCCC=CCCC[C@@](C)(C(N)=O)NC(=O)[C@H](CO)NC(=O)[C@H](CC(=O)O)NC(=O)[C@H](Cc3c[nH]c4ccccc34)NC2=O)NC(=O)[C@H](CCC(=O)O)NC(=O)[C@H]([C@@H](C)O)NC(=O)[C@H](CC(C)C)NC1=O) [RNF31-NC]”, the “Cell viability (MTS)” value is recorded as “little effect” in the test with GCB DLBCL cell lines and “toxic” in the test with ABC DLBCL cell lines (setting [1]). Besides, the “Relative NF-κB-luciferase reporter activity” value in the test on NF-κB is “strongly inhibit NF-κB”. Further, the “RBCK1/RNF31 interaction (anti-HA immunoprecipitation, densitometry)” value in the test with RBCK1/RNF31 interaction is recorded as “inhibited RBCK1/RNF31 interaction in a dose-dependent fashion”.
Regarding “Ac-βAla Ser Arg Xaa Leu Thr Glu Xaa Gln Arg Gln Arg Leu Glu Pro Phe Arg Gln Arg Leu Trp Asp Ser-NH2 (Ac-[βAla]SR[S5]LTE[S5]QRQRLEPFRQRLWDS-NH2; staple 4-8; SMILES CC(=O)NCCC(=O)N[C@@H](CO)C(=O)N[C@@H](CCCNC(=N)N)C(=O)N[C@@]1(C)CCCC=CCCC[C@@](C)(C(=O)N[C@@H](CCC(N)=O)C(=O)N[C@@H](CCCNC(=N)N)C(=O)N[C@@H](CCC(N)=O)C(=O)N[C@@H](CCCNC(=N)N)C(=O)N[C@@H](CC(C)C)C(=O)N[C@@H](CCC(=O)O)C(=O)N2CCC[C@H]2C(=O)N[C@@H](Cc2ccccc2)C(=O)N[C@@H](CCCNC(=N)N)C(=O)N[C@@H](CCC(N)=O)C(=O)N[C@@H](CCCNC(=N)N)C(=O)N[C@@H](CC(C)C)C(=O)N[C@@H](Cc2c[nH]c3ccccc23)C(=O)N[C@@H](CC(=O)O)C(=O)N[C@@H](CO)C(N)=O)NC(=O)[C@H](CCC(=O)O)NC(=O)[C@H]([C@@H](C)O)NC(=O)[C@H](CC(C)C)NC1=O) [RNF31-N]”, the results for the “Cell viability (MTS)” value in the test on GCB DLBCL cell lines and in the test with ABC DLBCL cell lines (setting [1]) were “little effect” and “toxic”, respectively. Further, the “Relative NF-κB-luciferase reporter activity” value in the test on NF-κB is reported as “strongly inhibit NF-κB”. Moreover, in the test with RBCK1/RNF31 interaction, the “RBCK1/RNF31 interaction (anti-HA immunoprecipitation, densitometry)” value is recorded as “inhibited RBCK1/RNF31 interaction in a dose-dependent fashion”.
As for `CC(=O)NCCC(=O)N[C@@H](CO)C(=O)N[C@@H](CCCNC(=N)N)C(=O)N[C@@]1(C)CCCC=CCCC[C@@](C)(C(=O)N[C@@H](CCC(N)=O)C(=O)N[C@@H](CCCNC(=N)N)C(=O)N[C@@H](CCC(N)=O)C(=O)N[C@@H](CCCNC(=N)N)C(=O)N[C@@H](CC(C)C)C(=O)N[C@@H](CCC(=O)O)C(=O)N2CCC[C@H]2C(=O)N[C@@H](Cc2ccccc2)C(=O)N[C@@H](CCCNC(=N)N)C(=O)N[C@@H](CC(C)C)C(=O)N[C@@H](CCCNC(=N)N)C(=O)N[C@@]2(C)CCCC=CCCC[C@@](C)(C(N)=O)NC(=O)[C@H](CO)NC(=O)[C@H](CC(=O)O)NC(=O)[C@H](Cc3c[nH]c4ccccc34)NC2=O)NC(=O)[C@H](CCC(=O)O)NC(=O)[C@H]([C@@H](C)O)NC(=O)[C@H](CC(C)C)NC1=O` [RNF31-NC Q2L, Ac-βAla Ser Arg Xaa Leu Thr Glu Xaa Gln Arg Gln Arg Leu Glu Pro Phe Arg Leu Arg Xaa Trp Asp Ser Xaa-NH2] (Ac-[βAla]SR[S5]LTE[S5]QRQRLEPFRLR[S5]WDS[S5]-NH2; staple 4-8, 20-24), in the test on IκBα, the “IκBα activity (IκBα-reporter)” value is reported as “decreased IκBα activity; also recorded: greatest activity”. Also, the NF-κB activity entry with NF-κB (ABC DLBCL cells, Example 10 (FIG. 8A)) was “inhibited NF-κB activity; also recorded: greatest activity”. Further, the “Cell viability (MTS)” value in the test with ABC DLBCL cell lines (ABC DLBCL cells, Example 10 (FIG. 8C)) is listed as “decreased cell viability; also recorded: greatest activity”. In addition, the “Interference with LUBAC function” value at RBCK1/RNF31 interaction (Example 9, tested as described in Example 7 (present tense)) was “interfere with LUBAC function”.

Values taken from patent US9783586B2, “Inhibitors of the linear ubiquitin chain assembly complex (LUBAC) and related methods” (The United States of America, as represented by the …, priority 2013, dated 2017).
